{"source": "paper PMC9972480", "about": "“Synthesis of Quinoline and Dihydroquinoline Embelin Derivatives as Cardioprotective Agents” (Journal of Natural Products, 2023)", "key": {"[1]": {"experiment": "MTT cell viability assay (cytotoxicity) in J774 macrophages", "type": "cell-based, murine", "details": "mouse", "experimental": "(§1) The potential cytotoxicity of embelin (1) together with derivatives (4a–4m, 5a–5d, 6a–6m) was tested in cardiomyocytes and macrophages in order to ensure that compounds lack toxicity also in immune cells. Cell viability was determined by the MTT assay.[58] Four dihydroquinoline derivatives (4b, 4f, 4i, and 4m) and six quinoline compounds (6a, 6d, 6e, 6i, 6k, and 6m) maintained higher viable cell rates in both types of cells. IC50 values of these derivatives were higher than 40 μM and were selected for further analysis.\n(§2) J774A.1 murine macrophage cells, H9c2 embryonic rat heart-derived cells, and MCF-7 breast cancer cells were purchased from American Type Cell Culture (ATCC, Manassas, VA, USA). Cells were cultured in Dulbecco’s modified Eagle medium with 10% fetal bovine serum and 1% penicillin/streptomycin (Lonza) and were maintained at 37 °C in a humidified incubator containing 5% CO2.\n(§3) Cell viability was assessed by conducting an MTT [3-(4,5-dimethylthiazol-2-yl)-2,5-diphenyltetrazolium bromide dye] assay. Briefly, J 774A.1, H9c2, and MCF7 cells were seeded in 96-well plates for 24 h. Then, cells were treated with DOX in the absence or presence of compounds. MTT (Sigma) reagent was added to the medium for 1 h at 37 °C. Then, the formazan was dissolved in dimethyl sulfoxide (DMSO, 100 μL). Absorbance was measured at 540 nm with a microplate reader (BMG Labtech)."}, "[2]": {"experiment": "MTT cell viability assay (cytotoxicity) in H9c2 cardiomyocytes", "type": "cell-based, rat", "details": "rat, H9c2 cardiomyocytes, 24 h, MTT; for viability at 24 h, 10 µM / viability at 24 h, 20 µM: mean ± SD, n = 3; for IC50 at 24 h: H9c2 cardiomyocytes (embryonic heart-derived cells), stated for both types of cells", "experimental": "as §1, §2, §3"}}, "data": [{"smiles": "CCCCCCCCCCCC1=C(O)C(=O)c2c(nc3cc(C)cc(C)c3c2-c2ccc([N+](=O)[O-])cc2)C1=O", "note": "[Compound 6l, 2-Hydroxy-6,8-dimethyl-9-(4-nitrophenyl)-3-undecylacridine-1,4-dione]", "values": [{"measurement": "viability at 24 h, 10 µM", "setting": "[1]", "value": "82.3 ± 0.3", "unit": "%"}, {"measurement": "viability at 24 h, 20 µM", "setting": "[1]", "value": "63.8 ± 4.8", "unit": "%"}, {"measurement": "viability at 24 h, 10 µM", "setting": "[2]", "value": "64.8 ± 6.7", "unit": "%"}, {"measurement": "viability at 24 h, 20 µM", "setting": "[2]", "value": "55.9 ± 9.4", "unit": "%"}]}, {"smiles": "CCCCCCCCCCCC1=C(O)C(=O)c2c(nc3ccccc3c2-c2ccc(OC)c(OC)c2)C1=O", "note": "[Compound 6j, 2-Hydroxy-9-(3,4-dimethoxyphenyl)-3-undecylacridine-1,4-dione]", "values": [{"measurement": "viability at 24 h, 10 µM", "setting": "[1]", "value": "85.2 ± 3.7", "unit": "%"}, {"measurement": "viability at 24 h, 20 µM", "setting": "[1]", "value": "64 ± 2.6", "unit": "%"}, {"measurement": "viability at 24 h, 10 µM", "setting": "[2]", "value": "85.5 ± 6.2", "unit": "%"}, {"measurement": "viability at 24 h, 20 µM", "setting": "[2]", "value": "68.4 ± 8.6", "unit": "%"}]}, {"smiles": "CCCCCCCCCCCC1=C(O)C(=O)C=C(Nc2ccccc2)C1=O", "note": "[Compound 5a, 2-Hydroxy-5-(phenylamino)-3-undecylcyclohexa-2,5-diene-1,4-dione]", "values": [{"measurement": "viability at 24 h, 10 µM", "setting": "[1]", "value": "56.9 ± 4", "unit": "%"}, {"measurement": "viability at 24 h, 20 µM", "setting": "[1]", "value": "56.2 ± 2", "unit": "%"}, {"measurement": "viability at 24 h, 10 µM", "setting": "[2]", "value": "99 ± 7.1", "unit": "%"}, {"measurement": "viability at 24 h, 20 µM", "setting": "[2]", "value": "83 ± 7", "unit": "%"}]}, {"smiles": "CCCCCCCCCCCC1=C(O)C(=O)c2c(nc3ccccc3c2-c2cccc(F)c2)C1=O", "note": "[Compound 6f, 2-Hydroxy-9-(3-fluorophenyl)-3-undecylacridine-1,4-dione]", "values": [{"measurement": "viability at 24 h, 10 µM", "setting": "[1]", "value": "79.3 ± 4.6", "unit": "%"}, {"measurement": "viability at 24 h, 20 µM", "setting": "[1]", "value": "62.2 ± 4.3", "unit": "%"}, {"measurement": "viability at 24 h, 10 µM", "setting": "[2]", "value": "98.3 ± 4.9", "unit": "%"}, {"measurement": "viability at 24 h, 20 µM", "setting": "[2]", "value": "84.5 ± 4.3", "unit": "%"}]}, {"smiles": "CCCCCCCCCCCC1=C(O)C(=O)c2c(nc3ccccc3c2-c2ccsc2)C1=O", "note": "[Compound 6h, 2-Hydroxy-9-(thiophen-3-yl)-3-undecylacridine-1,4-dione]", "values": [{"measurement": "viability at 24 h, 10 µM", "setting": "[1]", "value": "73.5 ± 2.8", "unit": "%"}, {"measurement": "viability at 24 h, 20 µM", "setting": "[1]", "value": "56.7 ± 3.3", "unit": "%"}, {"measurement": "viability at 24 h, 10 µM", "setting": "[2]", "value": "75.3 ± 5", "unit": "%"}, {"measurement": "viability at 24 h, 20 µM", "setting": "[2]", "value": "71.1 ± 2.8", "unit": "%"}]}, {"smiles": "CCCCCCCCCCCC1=C(O)C(=O)c2c(nc3ccccc3c2-c2ccccc2)C1=O", "note": "[Compound 6b, 2-Hydroxy-9-phenyl-3-undecylacridine-1,4-dione]", "values": [{"measurement": "viability at 24 h, 10 µM", "setting": "[1]", "value": "81.8 ± 4.7", "unit": "%"}, {"measurement": "viability at 24 h, 20 µM", "setting": "[1]", "value": "63.9 ± 6.6", "unit": "%"}, {"measurement": "viability at 24 h, 10 µM", "setting": "[2]", "value": "99.7 ± 2.1", "unit": "%"}, {"measurement": "viability at 24 h, 20 µM", "setting": "[2]", "value": "68.1 ± 4.6", "unit": "%"}]}, {"smiles": "CCCCCCCCCCCC1=C(O)C(=O)C=C(Nc2ccc(OC)cc2)C1=O", "note": "[Compound 5b, 2-Hydroxy-5-((4-methoxyphenyl)amino)-3-undecylcyclohexa-2,5-diene-1,4-dione]", "values": [{"measurement": "viability at 24 h, 10 µM", "setting": "[1]", "value": "68.4 ± 3.8", "unit": "%"}, {"measurement": "viability at 24 h, 20 µM", "setting": "[1]", "value": "48.3 ± 1.7", "unit": "%"}, {"measurement": "viability at 24 h, 10 µM", "setting": "[2]", "value": "89.3 ± 9.2", "unit": "%"}, {"measurement": "viability at 24 h, 20 µM", "setting": "[2]", "value": "87.4 ± 6.7", "unit": "%"}]}, {"smiles": "CCCCCCCCCCCC1=C(O)C(=O)c2c(nc3ccccc3c2-c2ccc(F)cc2)C1=O", "note": "[Compound 6e, 2-Hydroxy-9-(4-fluorophenyl)-3-undecylacridine-1,4-dione]", "values": [{"measurement": "IC50 at 24 h", "setting": "[1]", "value": "> 40", "unit": "µM"}, {"measurement": "viability at 24 h, 10 µM", "setting": "[1]", "value": "93.1 ± 4.5", "unit": "%"}, {"measurement": "viability at 24 h, 20 µM", "setting": "[1]", "value": "76.6 ± 5.9", "unit": "%"}, {"measurement": "IC50 at 24 h", "setting": "[2]", "value": "> 40", "unit": "µM"}, {"measurement": "viability at 24 h, 10 µM", "setting": "[2]", "value": "96.7 ± 8.1", "unit": "%"}, {"measurement": "viability at 24 h, 20 µM", "setting": "[2]", "value": "93.9 ± 0.9", "unit": "%"}]}, {"smiles": "CCCCCCCCCCCC1=C(O)C(=O)c2c(nc3ccccc3c2-c2ccc(Cl)cc2)C1=O", "note": "[Compound 6c, 2-Hydroxy-9-(4-chlorophenyl)-3-undecylacridine-1,4-dione]", "values": [{"measurement": "viability at 24 h, 10 µM", "setting": "[1]", "value": "83.4 ± 0.5", "unit": "%"}, {"measurement": "viability at 24 h, 20 µM", "setting": "[1]", "value": "55.8 ± 5.7", "unit": "%"}, {"measurement": "viability at 24 h, 10 µM", "setting": "[2]", "value": "95 ± 8.4", "unit": "%"}, {"measurement": "viability at 24 h, 20 µM", "setting": "[2]", "value": "74.3 ± 4.8", "unit": "%"}]}, {"smiles": "CCCCCCCCCCCC1=C(O)C(=O)C=C(Nc2cccc([N+](=O)[O-])c2)C1=O", "note": "[Compound 5d, 2-Hydroxy-5-((3-nitrophenyl)amino)-3-undecylcyclohexa-2,5-diene-1,4-dione]", "values": [{"measurement": "viability at 24 h, 10 µM", "setting": "[1]", "value": "65.5 ± 1.9", "unit": "%"}, {"measurement": "viability at 24 h, 20 µM", "setting": "[1]", "value": "50.8 ± 7", "unit": "%"}, {"measurement": "viability at 24 h, 10 µM", "setting": "[2]", "value": "67.8 ± 2.1", "unit": "%"}, {"measurement": "viability at 24 h, 20 µM", "setting": "[2]", "value": "57.5 ± 1.4", "unit": "%"}]}, {"smiles": "CCCCCCCCCCCC1=C(O)C(=O)C=C(O)C1=O", "note": "[Compound 1, embelin]", "values": [{"measurement": "viability at 24 h, 10 µM", "setting": "[1]; J774 macrophages, 10 μM, 24 h, MTT, mean ± SD, n = 3, read-out: Cell viability (%) J774 macrophages 10 μM", "value": "21.3 ± 2.7", "unit": "%"}, {"measurement": "viability at 24 h, 20 µM", "setting": "[1]; J774 macrophages, 20 μM, 24 h, MTT, mean ± SD, n = 3, read-out: Cell viability (%) J774 macrophages 20 μM", "value": "15.3 ± 0.8", "unit": "%"}, {"measurement": "viability at 24 h, 10 µM", "setting": "[2]", "value": "36.9 ± 5.8", "unit": "%"}, {"measurement": "viability at 24 h, 20 µM", "setting": "[2]", "value": "8.3 ± 0.1", "unit": "%"}]}, {"smiles": "CCCCCCCCCCCC1=C(O)C(=O)c2c(nc3ccccc3c2-c2ccc(C)c(C)c2)C1=O", "note": "[Compound 6i, 2-Hydroxy-9-(3,4-dimethylphenyl)-3-undecylacridine-1,4-dione]", "values": [{"measurement": "IC50 at 24 h", "setting": "[1]", "value": "> 40", "unit": "µM"}, {"measurement": "viability at 24 h, 10 µM", "setting": "[1]", "value": "93.3 ± 4.3", "unit": "%"}, {"measurement": "viability at 24 h, 20 µM", "setting": "[1]", "value": "75.1 ± 2.9", "unit": "%"}, {"measurement": "IC50 at 24 h", "setting": "[2]", "value": "> 40", "unit": "µM"}, {"measurement": "viability at 24 h, 10 µM", "setting": "[2]", "value": "99.8 ± 3", "unit": "%"}, {"measurement": "viability at 24 h, 20 µM", "setting": "[2]", "value": "92.6 ± 5.4", "unit": "%"}]}]}
